Measurements reported in article PMC4414684 (Chemico-biological interactions, 2014).

Target: T1, IKKβ (Homo sapiens, UniProt O14920)
T1 sequence (O14920 1-756): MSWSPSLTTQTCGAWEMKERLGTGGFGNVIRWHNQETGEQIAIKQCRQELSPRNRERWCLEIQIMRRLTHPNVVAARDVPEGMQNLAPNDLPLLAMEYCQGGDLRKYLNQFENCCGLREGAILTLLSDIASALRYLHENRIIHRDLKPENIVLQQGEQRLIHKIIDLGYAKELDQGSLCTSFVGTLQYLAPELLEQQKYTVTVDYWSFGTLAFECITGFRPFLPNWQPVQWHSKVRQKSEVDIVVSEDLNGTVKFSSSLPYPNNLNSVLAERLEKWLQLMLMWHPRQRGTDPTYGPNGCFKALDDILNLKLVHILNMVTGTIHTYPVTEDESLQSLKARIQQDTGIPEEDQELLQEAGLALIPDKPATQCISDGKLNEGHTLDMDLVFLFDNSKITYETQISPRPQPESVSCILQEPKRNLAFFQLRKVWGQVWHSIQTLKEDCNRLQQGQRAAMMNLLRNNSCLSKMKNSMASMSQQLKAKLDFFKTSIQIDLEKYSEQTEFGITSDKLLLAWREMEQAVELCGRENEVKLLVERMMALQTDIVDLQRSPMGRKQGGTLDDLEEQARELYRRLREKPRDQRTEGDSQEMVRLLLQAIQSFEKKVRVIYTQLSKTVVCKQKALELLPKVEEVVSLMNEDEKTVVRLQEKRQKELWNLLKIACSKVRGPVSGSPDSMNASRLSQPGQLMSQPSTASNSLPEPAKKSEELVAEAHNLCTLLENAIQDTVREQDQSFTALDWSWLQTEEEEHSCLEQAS
Type: biochemical
Conditions: read-out: % inhibition at 100 μM

- inhibition at 100 µM: > 50%
Structure (SMILES): CCCCCC(=O)/C=C/C=C\C/C=C\C/C=C\CCCC(=O)O [15-oxoETE]
